Results from US11732017B2, “HLA-A24 agonist epitopes of MUC1-C oncoprotein and compositions and methods of use” (The USA, as represented by the Secretary, Dept. of Health …, priority 2013, dated 2023).

Tests used:
Type in all cases: cell-based, human
[1] = tested on: PBMCs from vaccinated cancer patients; assay: Establishment of T-cell lines with peptide-pulsed APCs
Excerpt: Patients-PBMCs were used from two patients with prostate cancer enrolled in a previously described clinical trial of PSA-TRICOM vaccine in combination with […] al., Lancet Oncol., 13: 501-8 (2012)). An institutional review board of the National Institutes of Health (NIH) Clinical Center had approved the procedures, and informed consent was obtained in accordance with the Declaration of Helsinki. […] Cells were restimulated every 7 days.

T-C6A T-cell line = assay: Detection of cytokines, T-cell line generated with C6A
Procedure: (§1) Cells were restimulated every 7 days.
Detection of cytokines—Autologous B cells pulsed with peptides at different concentrations (25, 12.5, 6.25 and 3, 13, and 1.56 μg/ml) were incubated with MUC1-specific T-cell lines at a 2:1 ratio for 24 hours.

T-C7A T-cell line = assay: Detection of cytokines, T-cell line generated with agonist C7A; details: 24 hours with peptide-pulsed B-cells
Procedure: as §1
(§2) Detection of cytokines—Autologous B cells pulsed with peptides at different concentrations (25, 12.5, 6.25 and 3, 13, and 1.56 μg/ml) were incubated with MUC1-specific T-cell lines at a 2:1 ratio for 24 hours. The supernatants were analyzed for IFN-γ by ELISA (Invitrogen, Frederick, Md.).
(§3) Each cell line was then stimulated for 24 hours with B-cells pulsed with either the native C7 or agonist C7A peptide, and cytokine levels in the supernatant were analyzed.

T-C7 T-cell line = assay: Detection of cytokines, T-cell line generated with native C7; details: 24 hours with peptide-pulsed B-cells
Procedure: as §1, §2, §3

[2] = T-cell line T-C6A stimulated with peptide
[3] = stimulation of the T-cell line generated with C6A

KYHPMSEYAL [Peptide C6A]
generation of T-cell lines using APCs pulsed with the peptide [1]: could be generated | GM-CSF (T-C6A T-cell line; [2]): 1277 pg/mL/2.5 × 10^5 T cells | IFN-γ (T-C6A T-cell line; [2]): 3060 pg/mL/2.5 × 10^5 T cells | IL-2 (T-C6A T-cell line; [2]): 3630 pg/mL/2.5 × 10^5 T cells | IL-6 (T-C6A T-cell line; [2]): 7.6 pg/mL/2.5 × 10^5 T cells | IL-8 (T-C6A T-cell line; [2]): 11.8 pg/mL/2.5 × 10^5 T cells | IL-10 (T-C6A T-cell line; [2]): 16.4 pg/mL/2.5 × 10^5 T cells | TNFα (T-C6A T-cell line; [2]): 1021 pg/mL/2.5 × 10^5 T cells | GM-CSF level (T-C6A T-cell line; [3]): > 10,000 pg/mL/10^5 cells | IFN-γ level (T-C6A T-cell line; [3]): 2,651 pg/mL/10^5 cells | IL-2 level (T-C6A T-cell line; [3]): < 50 pg/mL/10^5 cells | IL-6 level (T-C6A T-cell line; [3]): < 50 pg/mL/10^5 cells | IL-8 level (T-C6A T-cell line; [3]): > 10,000 pg/mL/10^5 cells | IL-10 level (T-C6A T-cell line; [3]): < 50 pg/mL/10^5 cells | IL-12 level (T-C6A T-cell line; [3]): < 50 pg/mL/10^5 cells | TNF-α level (T-C6A T-cell line; [3]): 372 pg/mL/10^5 cells

KYTNPAVAL [Peptide C7A]
GM-CSF (T-C7A T-cell line): 910 pg/mL/2.5 × 10^5 T cells | IFN-γ (T-C7A T-cell line): 2000 pg/mL/2.5 × 10^5 T cells | IL-2 (T-C7A T-cell line): <2.4 pg/mL/2.5 × 10^5 T cells | IL-6 (T-C7A T-cell line): 40 pg/mL/2.5 × 10^5 T cells | IL-8 (T-C7A T-cell line): 360 pg/mL/2.5 × 10^5 T cells | IL-10 (T-C7A T-cell line): 375 pg/mL/2.5 × 10^5 T cells | TNFα (T-C7A T-cell line): 70 pg/mL/2.5 × 10^5 T cells | generation of T-cell lines using APCs pulsed with the peptide [1]: could be generated | GM-CSF (T-C7 T-cell line): 300 pg/mL/2.5 × 10^5 T cells | IFN-γ (T-C7 T-cell line): 1279 pg/mL/2.5 × 10^5 T cells | IL-2 (T-C7 T-cell line): <2.4 pg/mL/2.5 × 10^5 T cells | IL-6 (T-C7 T-cell line): 7.7 pg/mL/2.5 × 10^5 T cells | IL-8 (T-C7 T-cell line): 7.3 pg/mL/2.5 × 10^5 T cells | IL-10 (T-C7 T-cell line): 45 pg/mL/2.5 × 10^5 T cells | TNFα (T-C7 T-cell line): 30 pg/mL/2.5 × 10^5 T cells

SYTNPAVAA [Peptide C7, native MUC1-C HLA-A24 peptide, position 502-510, reference compound]
GM-CSF (T-C7A T-cell line): 215 pg/mL/2.5 × 10^5 T cells | IFN-γ (T-C7A T-cell line): 680 pg/mL/2.5 × 10^5 T cells | IL-2 (T-C7A T-cell line): <2.4 pg/mL/2.5 × 10^5 T cells | IL-6 (T-C7A T-cell line): <2.4 pg/mL/2.5 × 10^5 T cells | IL-8 (T-C7A T-cell line): 112 pg/mL/2.5 × 10^5 T cells | IL-10 (T-C7A T-cell line): 92 pg/mL/2.5 × 10^5 T cells | TNFα (T-C7A T-cell line): 30 pg/mL/2.5 × 10^5 T cells | generation of T-cell lines using APCs pulsed with the peptide [1]: could be generated | GM-CSF (T-C7 T-cell line): 237 pg/mL/2.5 × 10^5 T cells | IFN-γ (T-C7 T-cell line): 750 pg/mL/2.5 × 10^5 T cells | IL-2 (T-C7 T-cell line): <2.4 pg/mL/2.5 × 10^5 T cells | IL-6 (T-C7 T-cell line): 6.4 pg/mL/2.5 × 10^5 T cells | IL-8 (T-C7 T-cell line): 6.8 pg/mL/2.5 × 10^5 T cells | IL-10 (T-C7 T-cell line): 25 pg/mL/2.5 × 10^5 T cells | TNFα (T-C7 T-cell line): 21 pg/mL/2.5 × 10^5 T cells

TYHPMSEYPT [Peptide C6, native MUC1-C HLA-A24 peptide, position 462-471, reference compound]
generation of T-cell lines using APCs pulsed with the peptide [1]: unsuccessful
